Patent US8796253B2, “Heteroaryl substituted pyrazole derivatives useful for treating hyper-proliferative disorders and diseases associated with angiogenesis” (Bayer Intellectual Property GmbH, priority 2007, dated 2014)

system: HCT-116 cells stably transfected with a Luciferase reporter gene under the control of HIF-responsive element; assay: HIF-Luciferase Assay; assay type: cell-based; details: Homo sapiens, HCT-116, HIF-Luciferase Assay, HCT-116 reporter cells, overnight at 1% oxygen; group >10, unit inferred
Procedure: HCT-116 cells stably transfected with a Luciferase reporter gene under the control of HIF-responsive element were plated in white 96- or 384-well plates at 30,000 or 5,000 cells/well, respectively, in 50 μL/well media (RPMI with 10% fetal bovine serum and 100 μg/mL Hygromycin). Cells were incubated overnight at 37° C. in a humidified incubator containing 5% CO2 under normal oxygen. The next day test compounds were added to the wells at various concentrations (0-10 μM, 0.1% final DMSO concentration) and placed in a hypoxic chamber overnight at 1% oxygen. Following the exposure to hypoxic conditions, 50 μL/well of Bright Glo reagent (Promega, Wisconsin, USA) was added to the wells and luminescence was measured after 5 min. Cells incubated under normal oxygen levels were used as background control. […] Compounds that have IC50 values between 1 μM and 10 μM include those of Examples 8, 16, 38, 39, 40, 41, 42, 43, 47, 48, 53, 54, 56, 57, 66, 69, and 72.

IC50 [µM]	SMILES
> 10	Cc1ccc(Cn2nc(-c3nc4ccc(N5CCN(C)CC5)cc4[nH]3)cc2C)cc1 [Example 50, 2-[5-methyl-1-(4-methylbenzyl)-1H-pyrazol-3-yl]-6-(4-methylpiperazin-1-yl)-1H-benzimidazole]
> 10	Cc1ccc(Cn2nc(-c3nc4cc(C(C)(C)c5ccccc5)ccc4o3)cc2C)cc1 [Example 32, 2-[5-methyl-1-(4-methylbenzyl)-1H-pyrazol-3-yl]-5-(1-methyl-1-phenylethyl)-1,3-benzoxazole]
> 10	Cc1ccc(Cn2nc(-c3nc(-c4ccc(F)c(Br)c4)no3)cc2C)cc1 [Example 15, 3-(3-bromo-4-fluorophenyl)-5-[5-methyl-1-(4-methylbenzyl)-1H-pyrazol-3-yl]-1,2,4-oxadiazole]
> 10	Cc1ccc(Cn2nc(-c3nc4cc(Cc5ccccc5)ccc4o3)cc2C)cc1 [Example 33, 5-benzyl-2-[5-methyl-1-(4-methylbenzyl)-1H-pyrazol-3-yl]-1,3-benzoxazole]

same assay, conditions: Homo sapiens, HCT-116, HIF-Luciferase Assay, HCT-116 reporter cells, overnight at 1% oxygen; individual values

SMILES	IC50 [µM]
Cc1ccc(Cn2nc(-c3nc4ccc(-c5ccc(Cl)cc5)cc4[nH]3)cc2C)cc1 [Example 64, 6-(4-chlorophenyl)-2-[5-methyl-1-(4-methylbenzyl)-1H-pyrazol-3-yl]-1H-benzimidazole]	0.003
Cc1ccc(Cn2nc(-c3nc(-c4ccc(N5CCCC5=O)cc4)no3)cc2C)cc1 [Example 24, 1-(4-{5-[5-Methyl-1-(4-methylbenzyl)-1H-pyrazol-3-yl]-1,2,4-oxadiazol-3-yl}phenyl)pyrrolidin-2-one]	0.08

Further lines, results first:

IC50 [µM]	SMILES
0.02	Cc1ccc(Cn2nc(-c3nc(-c4ccc(C(C)(C)C)cc4)co3)cc2C)cc1 [Example 77, 4-(4-tert-Butylphenyl)-2-[5-methyl-1-(4-methylbenzyl)-1H-pyrazol-3-yl]-1,3-oxazole]
0.04	Cc1ccc(Cn2nc(-c3nc(-c4ccc(Cn5cccc5)cc4)no3)cc2C)cc1 [Example 140, 5-[5-Methyl-1-(4-methylbenzyl)-1H-pyrazol-3-yl]-3-[4-(1H-pyrrol-1-yl-methyl)phenyl]-1,2,4-oxadiazole]
0.03	Cc1cc(-c2nc(-c3ccc(OC(F)(F)F)cc3)no2)nn1Cc1ccc(C#N)cc1 [Example 121, 4-[(5-methyl-3-3-[4-(trifluoromethoxy)phenyl]-1,2,4-oxadiazol-5-yl-1H-pyrazol-1-yl)methyl]benzonitrile]
0.03	Cc1ccc(Cn2nc(-c3nc(-c4ccc(SC(F)(F)F)cc4)no3)cc2C)cc1 [Example 105, 5-[5-methyl-1-(4-methylbenzyl)-1H-pyrazol-3-yl]-3-4-[(trifluoromethyl)sulfanyl]phenyl-1,2,4-oxadiazole]

same assay, conditions: Homo sapiens, HCT-116, HIF-Luciferase Assay, HCT-116 reporter cells, overnight at 1% oxygen; potency groups

SMILES	IC50 [µM]
Cc1ccc(Cn2nc(-c3nc4ccc(-c5cccc(F)c5)cc4[nH]3)cc2C)cc1 [Example 61, 6-(3-fluorophenyl)-2-[5-methyl-1-(4-methylbenzyl)-1H-pyrazol-3-yl]-1H-benzimidazole]	≤ 1
Cc1ccc(Cn2nc(-c3nc(-c4ccc(N5CCOCC5=O)cc4)no3)cc2C)cc1 [Example 26, 4-(4-{5-[5-methyl-1-(4-methylbenzyl)-1H-pyrazol-3-yl]-1,2,4-oxadiazol-3-yl}phenyl)morpholin-3-one]	≤ 1
Cc1ccc(C(C)n2nc(-c3nc(-c4ccc(Br)cc4)no3)cc2C)cc1 (stereo not drawn) [Example 8, 3-(4-bromophenyl)-5-{5-methyl-1-[1-(4-methylphenyl)ethyl]-1H-pyrazol-3-yl}-1,2,4-oxadiazole]	1 to 10
Cc1ccc(Cn2nc(-c3nc4ccc(C)cc4[nH]3)cc2C)cc1 [Example 39, 6-methyl-2-[5-methyl-1-(4-methylbenzyl)-1H-pyrazol-3-yl]-1H-benzimidazole]	1 to 10
Cc1ccc(Cn2nc(-c3nc4cc(-c5cccc(F)c5)ccc4o3)cc2C)cc1 [Example 34, 5-(3-fluorophenyl)-2-[5-methyl-1-(4-methylbenzyl)-1H-pyrazol-3-yl]-1,3-benzoxazole]	≤ 1
Cc1ccc(Cn2nc(-c3nc4ccncc4[nH]3)cc2C)cc1 [Example 42, 2-[5-methyl-1-(4-methylbenzyl)-1H-pyrazol-3-yl]-3H-imidazo[4,5-c]pyridine]	1 to 10
Cc1ccc(Cn2nc(-c3nc4ccc(-c5ccc(Cl)cc5)cc4[nH]3)cc2C)cc1 [Example 64, 6-(4-chlorophenyl)-2-[5-methyl-1-(4-methylbenzyl)-1H-pyrazol-3-yl]-1H-benzimidazole]	≤ 1
Cc1ccc(Cn2nc(-c3nc(-c4ccc(C5CCCCC5)cc4)no3)cc2C)cc1 [Example 11, 3-(4-cyclohexylphenyl)-5-[5-methyl-1-(4-methylbenzyl)-1H-pyrazol-3-yl]-1,2,4-oxadiazole]	≤ 1
Cc1ccc(Cn2nc(-c3nc(-c4ccc(Br)cc4)no3)cc2C)cc1 [Example 3, 3-(4-bromophenyl)-5-[5-methyl-1-(4-methylbenzyl)-1H-pyrazol-3-yl]-1,2,4-oxadiazole]	≤ 1
Cc1ccc(Cn2nc(-c3nc4ccc(-c5ccccc5Cl)cc4[nH]3)cc2C)cc1 [Example 62, 6-(2-chlorophenyl)-2-[5-methyl-1-(4-methylbenzyl)-1H-pyrazol-3-yl]-1H-benzimidazole]	≤ 1
Cc1ccc(Cn2nc(-c3nc4ccc(OC(F)(F)F)cc4[nH]3)cc2C)cc1 [Example 58, 2-[5-methyl-1-(4-methylbenzyl)-1H-pyrazol-3-yl]-6-(trifluoromethoxy)-1H-benzimidazole]	≤ 1
Cc1ccc(Cn2nc(-c3nc(-c4ccc(N5CCCC5=O)cc4)no3)cc2C)cc1 [Example 24, 1-(4-{5-[5-Methyl-1-(4-methylbenzyl)-1H-pyrazol-3-yl]-1,2,4-oxadiazol-3-yl}phenyl)pyrrolidin-2-one]	≤ 1
Cc1ccc(Cn2nc(-c3nc(-c4ccc(OC(C)C)cc4)no3)cc2C)cc1 [Example 20, 3-(4-Isopropoxyphenyl)-5-[5-methyl-1-(4-methylbenzyl)-1H-pyrazol-3-yl]-1,2,4-oxadiazole]	≤ 1
Cc1ccc(Cn2nc(-c3nc(-c4ccc(N5CCCCC5)cc4)no3)cc2C)cc1 [Example 12, 1-(4-{5-[5-methyl-1-(4-methylbenzyl)-1H-pyrazol-3-yl]-1,2,4-oxadiazol-3-yl}phenyl)piperidine]	≤ 1
Cc1ccc(Cn2nc(-c3nc(-c4ccc(C(F)(F)F)nc4)no3)cc2C)cc1 [Example 17, 5-{5-[5-methyl-1-(4-methylbenzyl)-1H-pyrazol-3-yl]-1,2,4-oxadiazol-3-yl}-2-(trifluoromethyl)pyridine]	≤ 1
Cc1ccc(Cn2nc(-c3nc4cc(Cl)c(F)cc4[nH]3)cc2C)cc1 [Example 56, 5-chloro-6-fluoro-2-[5-methyl-1-(4-methylbenzyl)-1H-pyrazol-3-yl]-1H-benzimidazole]	1 to 10

Further lines, results first:

IC50 [µM]	SMILES
≤ 1	Cc1ccc(Cn2nc(-c3nc(-c4ccc(C(C)(C)C)cc4)co3)cc2C)cc1 [Example 77, 4-(4-tert-Butylphenyl)-2-[5-methyl-1-(4-methylbenzyl)-1H-pyrazol-3-yl]-1,3-oxazole]
1 to 10	Cc1ccc(Cn2nc(C3=NC(Cc4ccc(Cl)cc4)CO3)cc2C)cc1 (stereo not drawn) [Example 72, 4-(4-chlorobenzyl)-2-[5-methyl-1-(4-methylbenzyl)-1H-pyrazol-3-yl]-4,5-dihydro-1,3-oxazole]
1 to 10	Cc1ccc(Cn2nc(-c3nc4cc5cn[nH]c5cc4[nH]3)cc2C)cc1 [Example 48, 6-[5-methyl-1-(4-methylbenzyl)-1H-pyrazol-3-yl]-1,7-dihydroimidazo[4,5-f]indazole]
≤ 1	Cc1ccc(Cn2nc(-c3nc4ccc(Oc5ccccc5)cc4o3)cc2C)cc1 [Example 30, 2-[5-methyl-1-(4-methylbenzyl)-1H-pyrazol-3-yl]-6-phenoxy-1,3-benzoxazole]
1 to 10	Cc1ccc(Cn2nc(-c3nc(-c4cccnc4)no3)cc2C)cc1 [Example 16, 3-{5-[5-methyl-1-(4-methylbenzyl)-1H-pyrazol-3-yl]-1,2,4-oxadiazol-3-yl}pyridine]
≤ 1	Cc1ccc(Cn2nc(-c3nc(-c4ccc(-c5ccc(OC(F)(F)F)cc5)cc4)no3)cc2C)cc1 [Example 5, 5-[5-methyl-1-(4-methylbenzyl)-1H-pyrazol-3-yl]-3-[4′-(trifluoromethoxy)biphenyl-4-yl]-1,2,4-oxadiazole]
1 to 10	Cc1ccc(Cn2nc(-c3nc4ccccc4[nH]3)cc2C)cc1 [Example 38, 2-[5-methyl-1-(4-methylbenzyl)-1H-pyrazol-3-yl]-1H-benzimidazole]
≤ 1	Cc1ccc(Cn2nc(-c3nc(-c4ccccc4)co3)cc2C)cc1 [Example 74, 2-[5-Methyl-1-(4-methylbenzyl)-1H-pyrazol-3-yl]-4-phenyl-1,3-oxazole]
1 to 10	Cc1ccc(Cn2nc(-c3nc4ccc(C(C)(C)C)cc4[nH]3)cc2C)cc1 [Example 43, 6-tert-butyl-2-[5-methyl-1-(4-methylbenzyl)-1H-pyrazol-3-yl]-1H-benzimidazole]
≤ 1	Cc1ccc(Cn2nc(-c3nc(-c4ccc(N5CCCC(C)C5)cc4)no3)cc2C)cc1 (stereo not drawn) [Example 6, 3-methyl-1-(4-{5-[5-methyl-1-(4-methylbenzyl)-1H-pyrazol-3-yl]-1,2,4-oxadiazol-3-yl}phenyl)piperidine]
≤ 1	Cc1ccc(Cn2nc(-c3nc(-c4ccc(N5CCOC5=O)cc4)no3)cc2C)cc1 [Example 25, 3-(4-{5-[5-methyl-1-(4-methylbenzyl)-1H-pyrazol-3-yl]-1,2,4-oxadiazol-3-yl}phenyl)-1,3-oxazolidin-2-one]
≤ 1	Cc1ccc(Cn2nc(-c3nc(-c4ccc(OC(F)(F)F)cc4)c[nH]3)cc2C)cc1 [Example 65, 5-Methyl-1-(4-methylbenzyl)-3-{4-[4-(trifluoromethoxy)phenyl]-1H-imidazol-2-yl}-1H-pyrazole]
≤ 1	Cc1ccc(Cn2nc(-c3nc4ccc(C(=O)c5ccccc5)cc4[nH]3)cc2C)cc1 [Example 46, {2-[5-methyl-1-(4-methylbenzyl)-1H-pyrazol-3-yl]-1H-benzimidazol-6-yl}(phenyl)methanone]
